Experimental data as given in patent US6407311B1, “Methods for production of hybrid wheat” (Yeda Research & Development Co., Ltd., priority 1997, dated 2002).

Assays:
[1] = test system: lines of diploid Aegilops species; experiment: Reaction of lines of diploid Aegilops species to chlorotoluron; assay type: in vivo; conditions: most lines
Description: (§1) Different cultivars of common wheat show different reaction to the herbicide chlorotoluron and to other phenyl derivatives of urea; several cultivars carrying the dominant allele Su-B1 (e.g., Cappelle Desprez) are resistant while others carrying the recessive allele su-B1 (e.g., Chinese Spring) are susceptible (Snape et al, 1991). The gene is located on the long arm of chromosome 6B (6BL) about 0.5 cM from the centromere. […] Since chromosome 6S^sL of Ae. searsii pairs almost regularly with 6S^lL of Ae. longissima, it is possible to transfer the resistance allele to the 6S^lL arm of the engineered chromosome EC-H (FIGS. 8a,b), thus producing the engineered chromosome of the EC-HR type. […] The presence of the chlorotoluron resistance allele on the engineered chromosome facilitates the selective killing, in each generation, of the male-sterile plants that lack the engineered chromosome while unaffecting the male-fertile maintainer plants (with the engineered chromosome) in the progeny of the selfed maintainer. This will assure, that in each generation, only the male-fertile offspring of the selfed maintainer, will grow.

[2] = test system: cultivars carrying the recessive allele su-B1 (e.g., Chinese Spring); conditions: Snape et al, 1991; cited from earlier work
[3] = test system: line of Ae. searsii carrying the chlorotoluron resistance allele Su-S^s1; experiment: Spraying chlorotoluron on the Ae. searsii line carrying Su-S^s1; assay type: in vivo, Aegilops searsii; conditions: sprayed at double the rate recommended at commercial fields
Description: as §1, with “grow. […]” for “grow.”

[4] = test system: plants with 2n=43 carrying the EC-HR1; experiment: Chlorotoluron on selfed progeny of EC-HR1 monosomic addition plants, 2n=43; assay type: in vivo, common wheat
Description: (§2) To construct the engineered chromosome EC-HR1, the dominant chlorotoluron resistance allele Su-S^s1 is transferred from chromosome arm 6S^sL of a selected line of Ae. searsii into the 6S^lL arm of the engineered chromosome EC-H1. This is achieved by crossing a […] female parent derived from the male-fertile maintainer line in the common wheat cultivar Chinese Spring. This female parent is homozygous for the ms-B1, su-B1 and Ki-B1 alleles and has, as a monosomic addition, the engineered chromosome EC-H1 (4S^sS/6S^lL) carrying on its short arm the Ms-S^s1 and rht-S^s1 alleles and on its long arm the su-S1ki-S^l1-a alleles, with a line of the diploid species Ae. searsii carrying the chlorotoluron resistance allele on the long arm of chromosome 6S^s, i.e., on 6S^sL, as well as the Ms-S^s1 and rht-S^s1 alleles on 4S^sS. About 20% of the F1 progeny have the engineered chromosome EC-H1 and therefore contain 2n=29 chromosomes and can be distinguished from the other F1 plants having 2n=28. […] Pollinating the 2n=29 F1 plants once or twice with Chinese Spring, homozygous for su-B1 yields plants with 2n=43 (21″+1′) containing the desired engineered chromosome EC-HR1 as a monosomic addition.

[5] = test system: plants with 2n=42 (lacking the EC-HR1); experiment: Chlorotoluron on selfed progeny of EC-HR1 monosomic addition plants, 2n=42; assay type: in vivo, common wheat
Description: as §2

[6] = test system: cultivars carrying the dominant allele Su-B1 (e.g., Cappelle Desprez); conditions: Snape et al, 1991; cited from earlier work
[7] = test system: plants of common wheat homozygous for the herbicide susceptibility allele su-B1; experiment: Spraying chlorotoluron on common wheat homozygous for su-B1; assay type: in vivo; conditions: sprayed at double the rate recommended at commercial fields
Description: To test the effect of chlorotoluron on the various genotypes we sprayed this herbicide at a rate which is double of the recommended at commercial fields on plants of common wheat homozygous for the herbicide susceptibility allele su-B1 and the line of Ae. searsii carrying the chlorotoluron resistance allele Su-S^s1. All plants carrying the recessive su-B1 allele died within 10-14 days from spraying while those carrying the dominant Su-S^s1 allele survived.

Cc1ccc(NC(=O)N(C)C)cc1Cl [chlorotoluron, 3-(3-chloro-p-tolyl)-1,1-dimethylurea]
reaction to the herbicide [1]: susceptible | reaction to the herbicide [2]: susceptible | outcome of plants after spraying [3]: survived | effect on plants carrying EC-HR1 [4]: unaffected | effect on plants lacking the resistance allele [5]: kills all plants | reaction to the herbicide [6]: resistant | outcome of plants after spraying [7]: died | time to death from spraying [7]: 10 to 14 days
